# In doi:10.1101/767673v1 (bioRxiv, 2019):
# Where a SMILES comes first, the peptide text is derived from it. Bridges are numbered along the chain shown (N, C = ends). [ ]: non-standard residue; d: D form. dPhe(4-CF3) = N[C@H](Cc1ccc(C(F)(F)F)cc1)C(=O)O; dTrp(6-F) = N[C@H](Cc1c[nH]c2cc(F)ccc12)C(=O)O; S8 = C=CCCCCCC[C@](C)(N)C(=O)O; R5 = C=CCCC[C@@](C)(N)C(=O)O
# What was measured:
# [1] = target: human Mdm2 protein (amino acids 1–125) (Homo sapiens, UniProt Q00987); assay: Isothermal titration calorimetry; assay type: binding; conditions: PBS pH 7.2, 3% DMSO, 0.001% Tween-20, duplicates
# Mdm4 = target: T1, Mdm4 (Homo sapiens, UniProt O15151); assay: Competitive fluorescence anisotropy / FP binding assay, Mdm4; conditions: FP competition assay
# T1 sequence (O15151 1-490): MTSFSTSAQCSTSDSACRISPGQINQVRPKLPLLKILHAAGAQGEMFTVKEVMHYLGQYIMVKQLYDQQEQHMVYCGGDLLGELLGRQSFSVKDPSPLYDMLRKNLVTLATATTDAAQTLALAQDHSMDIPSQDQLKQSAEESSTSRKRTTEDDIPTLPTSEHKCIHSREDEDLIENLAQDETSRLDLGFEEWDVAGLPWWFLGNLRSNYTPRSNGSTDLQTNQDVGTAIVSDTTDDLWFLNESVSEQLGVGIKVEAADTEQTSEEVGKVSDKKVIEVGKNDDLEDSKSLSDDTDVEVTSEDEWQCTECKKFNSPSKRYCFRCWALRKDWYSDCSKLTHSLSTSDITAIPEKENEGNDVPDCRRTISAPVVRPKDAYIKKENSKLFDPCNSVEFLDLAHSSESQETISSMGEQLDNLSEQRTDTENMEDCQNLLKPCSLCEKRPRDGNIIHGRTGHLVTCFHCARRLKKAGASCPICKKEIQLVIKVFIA
# Mdm2 (1-125) = Mdm2 (1-125) (Homo sapiens, UniProt Q00987); assay: Competitive fluorescence anisotropy / FP binding assay, Mdm2; conditions: FP competition assay
compound,measurement,setting,value
CC(C)C[C@@H](NC(=O)[C@@H](CC(C)C)NC(=O)[C@@H](CCCCN)NC(=O)[C@@H](CCC(=O)O)NC(=O)[C@@H](Cc1ccc(C(F)(F)F)cc1)NC(=O)[C@@H](CC(N)=O)NC(=O)[C@@]1(C)CCCC=CCCC[C@@](C)(N)C(=O)N[C@H](C)C(=O)N[C@H](Cc2c[nH]c3cc(F)ccc23)C(=O)N[C@H](Cc2ccc(O)cc2)C(=O)N1)C(=O)N[C@H](CCCNC(=N)N)C(N)=O [^dPMI-δ(1-5)],ITC enthalpy of binding (ΔH) to Mdm2,[1],-15.8 kcal/mol
CC(C)C[C@@H](NC(=O)[C@@H](CC(C)C)NC(=O)[C@@]1(C)CCCC=CCCCCCC[C@](C)(NC(=O)[C@H](N)[C@H](C)O)C(=O)N[C@H](Cc2c[nH]c3cc(F)ccc23)C(=O)N[C@H](Cc2ccc(O)cc2)C(=O)N[C@H](C)C(=O)N[C@H](CC(N)=O)C(=O)N[C@H](Cc2ccc(C(F)(F)F)cc2)C(=O)N[C@H](CCC(=O)O)C(=O)N1)C(=O)N[C@H](CCCNC(=N)N)C(N)=O [^dPMI-δ(2-9)] (H-[dT][S8][dTrp(6-F)][dY][dA][dN][dPhe(4-CF3)][dE][R5][dL][dL][dR]-NH2; staple 2-9; N-terminus and C-terminus assumed),Binding to Mdm4 in the FP assay,Mdm4,displayed no binding
same,Binding to Mdm2 in the FP assay,Mdm2 (1-125),no binding
